In patent publication US11964973B2 (priority 2019, dated 2024):
Where two headings read alike, the source gives them in different places.

Key:
[1] = test system: OT-1 CD8+ T cells with SIINFEKL-loaded MC38 tumor cells; experiment: Murine cytotoxic T lymphocyte assay (IFN-γ); assay type: cell-based, mouse; conditions: murine cytotoxic T lymphocyte, IFN-γ, read-out: msCTL INFg IC50
Text: Assay 6: Murine Cytotoxic T Lymphocyte Assay
An antigen-specific cytolytic T-cell (CTL) assay was developed to evaluate functionally the ability of DGKα and DGKζ inhibitors to enhance effector T cell mediated tumor cell killing activity. CD8+ T-cells isolated from the OT-1 transgenic mouse recognize antigen presenting cells, MC38, that present the ovalbumin derived peptide […]. Recognition of the cognate antigen initiates the cytolytic activity of the OT-1 antigen-specific CD8+ T cells.
Functional CTL cells were generated as follows: OT-1 splenocytes from 8-12 week old mice were isolated and expanded in the presence of the […] peptide at 1 μg/mL and mIL2 at 10 U/mL. After three days, fresh media with […] was added. On day 5 of the expansion, the CD8+ T cells were isolated and ready for use. Activated CTL cells may be stored frozen for 6 months. Separately, one million MC38 tumor cells were pulsed with 1 μg/mL of […]-OVA peptide for 3 hours at 37° C. The cells were washed (3×) with fresh media to remove excess peptide. Finally, CTL cells that were pretreated with DGK inhibitors for 1 hour in a 96-well U bottom plate were combined with the antigen loaded MC38 tumor cells at a 1:10 ratio. The cells were then spun at 700 rpm for 5 min and placed in an incubator overnight at 37° C. After 24 hours, the supernatant was collected for analysis of IFN-γ cytokine levels by AlphaLisa purchased from Perkin Elmer.

naïve human CD8 T cells = experiment: CellTiter-Glo CD8 T cell proliferation assay; assay type: cell-based; conditions: Homo sapiens, read-out: CD8 GLO Normalized EC50
Experimental: Assay 4: CellTiter-Glo CD8 T Cell Proliferation Assay
Frozen naïve human CD8 T cells were thawed in RPMI+10% FBS, incubated for 2 h in 37° C., and counted. The 384-well tissue culture plate was coated overnight at 4° C. with 20 μl anti-human CD3 at 0.1 μg/mL in plain RPMI, which was removed off the plate before 20 k/40 μL CD8 T cells with 0.5 μg/ml soluble anti-human CD28 were added to each well. The compounds were echoed to the cell plate immediately after the cells were plated. After 72 h incubation at 37° C. incubator, 10 μL CellTiter-glo reagent (Promega catalog number G7570) was added to each well. The plate was vigorously shaken for 5 mins, incubated at room temperature for another 15 mins and read on Envision for CD8 T cell proliferation. In analysis, 0.1 μg/mL anti-CD3 and 0.5 μg/mL anti-CD28 stimulated CD8 T cell signal was background.

human DGKζ = human DGKζ (Homo sapiens (Human), UniProt Q13574); experiment: biochemical; assay type: biochemical; conditions: liposome (LIPGLO) assay; read-out: DGKζ LIPGLO IC50
DGKα = DGKα (Homo sapiens (Human), UniProt P23743); experiment: biochemical; assay type: biochemical; conditions: liposome (LIPGLO) assay; read-out: DGKα LIPGLO IC50
[2] = test system: Human venous whole blood (IFN-γ); experiment: Human whole blood IFN-γ assay; assay type: cell-based; conditions: Homo sapiens, 24 h, human whole blood, anti-CD3 plus anti-CD28, 24 hours; read-out: INFg Whole Blood Normalized Agonist EC50
Experimental: Assay 10: Human Whole Blood IFN-γ Assay
Human venous whole blood (22.5 μL per well), obtained from healthy donors, was pre-treated with compounds for one hour at 37° C. in a humidified 95% air/5% CO2 incubator. The blood was stimulated with 2.5 μL anti-human CD3 and anti-CD28 mAb at a final concentration of 1 μg/mL each for 24 hours at 37° C. IFN-γ in the supernatants was measured using AlphLISA kit (Cat #AL217).

Chain of human DGKζ (Q13574 whole entry, looked up): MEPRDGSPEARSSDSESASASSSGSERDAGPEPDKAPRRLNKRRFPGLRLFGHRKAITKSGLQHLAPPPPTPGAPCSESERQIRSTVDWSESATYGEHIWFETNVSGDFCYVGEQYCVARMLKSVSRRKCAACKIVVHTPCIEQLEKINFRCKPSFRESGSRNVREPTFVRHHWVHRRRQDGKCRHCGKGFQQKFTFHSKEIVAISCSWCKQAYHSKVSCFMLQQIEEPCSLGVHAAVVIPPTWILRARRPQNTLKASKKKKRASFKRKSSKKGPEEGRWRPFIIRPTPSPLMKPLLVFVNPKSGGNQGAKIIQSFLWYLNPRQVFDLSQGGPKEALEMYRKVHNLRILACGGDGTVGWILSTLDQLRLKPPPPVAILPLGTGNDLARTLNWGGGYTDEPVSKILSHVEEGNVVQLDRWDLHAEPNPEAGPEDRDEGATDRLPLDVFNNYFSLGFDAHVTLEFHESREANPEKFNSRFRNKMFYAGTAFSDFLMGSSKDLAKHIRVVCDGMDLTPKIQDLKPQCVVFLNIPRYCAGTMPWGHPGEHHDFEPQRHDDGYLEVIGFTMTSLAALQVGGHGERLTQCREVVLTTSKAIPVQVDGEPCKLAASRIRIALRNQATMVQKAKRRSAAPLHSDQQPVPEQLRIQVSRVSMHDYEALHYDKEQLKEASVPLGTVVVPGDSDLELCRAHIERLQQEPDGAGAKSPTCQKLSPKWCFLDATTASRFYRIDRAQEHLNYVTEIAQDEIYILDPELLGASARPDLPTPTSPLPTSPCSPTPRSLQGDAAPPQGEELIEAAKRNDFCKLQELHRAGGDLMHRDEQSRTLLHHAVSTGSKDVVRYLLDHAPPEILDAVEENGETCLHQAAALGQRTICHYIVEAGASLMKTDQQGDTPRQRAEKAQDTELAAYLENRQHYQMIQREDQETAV
Chain of DGKα (P23743 whole entry, looked up): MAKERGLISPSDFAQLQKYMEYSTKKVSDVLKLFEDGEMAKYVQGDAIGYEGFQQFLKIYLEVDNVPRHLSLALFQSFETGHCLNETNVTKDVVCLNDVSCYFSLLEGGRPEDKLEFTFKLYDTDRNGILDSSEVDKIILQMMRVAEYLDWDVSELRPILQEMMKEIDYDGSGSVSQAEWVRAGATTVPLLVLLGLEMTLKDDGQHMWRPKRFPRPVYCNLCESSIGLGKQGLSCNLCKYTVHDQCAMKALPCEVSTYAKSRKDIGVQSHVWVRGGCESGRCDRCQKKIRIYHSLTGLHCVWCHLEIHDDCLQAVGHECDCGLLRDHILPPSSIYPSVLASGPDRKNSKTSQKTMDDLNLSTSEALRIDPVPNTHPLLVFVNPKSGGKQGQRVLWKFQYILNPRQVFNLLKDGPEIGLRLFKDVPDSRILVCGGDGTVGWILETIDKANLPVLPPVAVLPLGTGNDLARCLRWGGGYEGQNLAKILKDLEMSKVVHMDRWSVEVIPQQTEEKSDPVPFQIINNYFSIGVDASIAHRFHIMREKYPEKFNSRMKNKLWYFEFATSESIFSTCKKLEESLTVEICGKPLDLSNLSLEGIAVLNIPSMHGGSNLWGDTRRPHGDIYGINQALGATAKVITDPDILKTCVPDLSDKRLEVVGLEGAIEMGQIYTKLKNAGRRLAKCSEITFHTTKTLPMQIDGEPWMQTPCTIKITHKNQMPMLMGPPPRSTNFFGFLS

Structure (SMILES) | IC50 ([1]; Mus musculus, MC-38) [nM] | EC50 (naïve human CD8 T cells) [nM] | IC50 (human DGKζ) [nM] | IC50 (DGKα) [nM] | IC50 [1] [nM] | EC50 [2] [nM]
Cn1c(=O)c(C#N)c(N2CCC(Oc3cccc(F)c3)CC2)c2nc(Cl)ccc21 [Example 45, 6-chloro-4-(4-(3-fluorophenoxy)piperidin-1-yl)-1-methyl-2-oxo-1,2-dihydro-1,5-naphthyridine-3-carbonitrile] | 10000 | 98 |  |  |  | 
Cn1c(=O)c(C#N)c(N2CCC(Oc3cccc(C#N)c3)CC2)c2nc(Cl)ccc21 [Example 34, 6-chloro-4-(4-(3-cyanophenoxy)piperidin-1-yl)-1-methyl-2-oxo-1,2-dihydro-1,5-naphthyridine-3-carbonitrile] | 8500 | 4100 | 9000 | 1100 |  | 
Cc1cccc(OC2CCN(c3c(C#N)c(=O)n(C)c4ccc(Cl)nc34)CC2)c1 [Example 22, 6-chloro-1-methyl-2-oxo-4-(4-(m-tolyloxy)piperidin-1-yl)-1,2-dihydro-1,5-naphthyridine-3-carbonitrile] |  | 620 | 5700 | 150 |  | 
Cn1c(=O)c(C#N)c(N2CCC(Oc3ccccc3F)CC2)c2nc(Cl)ccc21 [Example 44, 6-chloro-4-(4-(2-fluorophenoxy)piperidin-1-yl)-1-methyl-2-oxo-1,2-dihydro-1,5-naphthyridine-3-carbonitrile] |  | 1500 | 59000 | 1700 |  | 
COc1cc(OC2CCN(c3c(C#N)c(=O)n(C)c4ccc(Cl)nc34)CC2)ccc1Cl [Example 39, 6-chloro-4-(4-(4-chloro-3-methoxyphenoxy)piperidin-1-yl)-1-methyl-2-oxo-1,2-dihydro-1,5-naphthyridine-3-carbonitrile] | 3700 | 130 | 14000 | 350 |  | 
Cn1c(=O)c(C#N)c(N2CCC(Oc3ccccc3C#N)CC2)c2nc(Cl)ccc21 [Example 43, 6-chloro-4-(4-(2-cyanophenoxy)piperidin-1-yl)-1-methyl-2-oxo-1,2-dihydro-1,5-naphthyridine-3-carbonitrile] | 10000 | 10000 | 27000 | 1500 |  | 
Cn1c(=O)c(C#N)c(N2CCC(Oc3cccc(C(F)(F)F)c3)CC2)c2nc(Cl)ccc21 [Example 24, 6-chloro-1-methyl-2-oxo-4-(4-(3-(trifluoromethyl)phenoxy)piperidin-1-yl)-1,2-dihydro-1,5-naphthyridine-3-carbonitrile] | 1500 | 750 | 27000 | 2000 |  | 
Cc1cccc(OC2CCN(c3c([N+](=O)[O-])c(=O)n(C)c4ccc(F)cc34)CC2)c1 [Example 4, 6-fluoro-1-methyl-3-nitro-4-(4-(m-tolyloxy)piperidin-1-yl)quinolin-2(1H)-one] |  | 440 |  |  |  | 
Cn1c(=O)c(C#N)c(N2CCC(Oc3ccccc3)CC2)c2nc(Cl)ccc21 [Example 46, 6-chloro-1-methyl-2-oxo-4-(4-phenoxypiperidin-1-yl)-1,2-dihydro-1,5-naphthyridine-3-carbonitrile] | 8500 | 1200 | 27000 | 150 |  | 
COc1ccccc1OC1CCN(c2c(C#N)c(=O)n(C)c3ccc(Cl)nc23)CC1 [Example 35, 6-chloro-4-(4-(2-methoxyphenoxy)piperidin-1-yl)-1-methyl-2-oxo-1,2-dihydro-1,5-naphthyridine-3-carbonitrile] |  | 210 | 12000 | 290 |  | 
Cc1cc(F)cc(OC2CCN(c3c(C#N)c(=O)n(C)c4ccc(Cl)nc34)CC2)c1 [Example 28] |  |  | 5400 | 1600 | 10000 | 
Cn1c(=O)c(C#N)c(N2CCC(Oc3ccc(C#N)cc3)CC2)c2nc(Cl)ccc21 [Example 32, 6-chloro-4-(4-(4-cyanophenoxy)piperidin-1-yl)-1-methyl-2-oxo-1,2-dihydro-1,5-naphthyridine-3-carbonitrile] | 10000 |  |  |  |  | 
CC(C)c1ccc(OC2CCN(c3c([N+](=O)[O-])c(=O)n(C)c4ccc(F)cc34)CC2)cc1 [Example 2, 6-fluoro-4-(4-(4-isopropylphenoxy)piperidin-1-yl)-1-methyl-3-nitroquinolin-2(1H)-one] |  | 340 |  |  |  | 
Cn1c(=O)c([N+](=O)[O-])c(N2CCC(Oc3cccc4[nH]ncc34)CC2)c2cc(F)ccc21 [Example 5, 4-(4-((1H-indazol-4-yl)oxy)piperidin-1-yl)-6-fluoro-1-methyl-3-nitroquinolin-2(1H)-one] |  | 10000 |  |  |  | 
Cn1c(=O)c([N+](=O)[O-])c(N2CCC(Oc3cccc(F)c3)CC2)c2cc(F)ccc21 [Example 9, 6-fluoro-4-(4-(3-fluorophenoxy)piperidin-1-yl)-1-methyl-3-nitroquinolin-2(1H)-one] |  | 790 |  |  |  | 
Cc1cc(Br)ccc1OC1CCN(c2c(C#N)c(=O)n(C)c3ccc(Cl)nc23)CC1 [Example 26, 4-(4-(4-bromo-2-methylphenoxy)piperidin-1-yl)-6-chloro-1-methyl-2-oxo-1,2-dihydro-1,5-naphthyridine-3-carbonitrile] | 10000 | 2700 |  |  |  | 
Cn1c(=O)c(C#N)c(N2CCC(Oc3ccc(OC(F)(F)F)cc3)CC2)c2nc(Cl)ccc21 [Example 19, 6-chloro-1-methyl-2-oxo-4-(4-(4-(trifluoromethoxy)phenoxy)piperidin-1-yl)-1,2-dihydro-1,5-naphthyridine-3-carbonitrile] | 210 | 280 |  | 320 |  | 10000
Cn1c(=O)c(C#N)c(N2CCC(Oc3cc(F)ccc3Cl)CC2)c2nc(Cl)ccc21 [Example 23, 6-chloro-4-(4-(2-chloro-5-fluorophenoxy)piperidin-1-yl)-1-methyl-2-oxo-1,2-dihydro-1,5-naphthyridine-3-carbonitrile] | 10000 |  | 58000 | 66000 |  | 
Cn1c(=O)c(C#N)c(N2CCC(Oc3ccc(Cl)cc3)CC2)c2nc(Cl)ccc21 [Example 16, 6-chloro-4-(4-(4-chlorophenoxy)piperidin-1-yl)-1-methyl-2-oxo-1,2-dihydro-1,5-naphthyridine-3-carbonitrile] | 1100 | 93 |  | 1700 |  | 10000
Cn1c(=O)c(C#N)c(N2CCC(Oc3ccc(F)cc3)CC2)c2nc(Cl)ccc21 [Example 20, 6-chloro-4-(4-(4-fluorophenoxy)piperidin-1-yl)-1-methyl-2-oxo-1,2-dihydro-1,5-naphthyridine-3-carbonitrile] |  | 870 | 16000 | 430 |  | 
Cn1c(=O)c(C#N)c(N2CCC(Oc3cccc(Cl)c3)CC2)c2nc(Cl)ccc21 [Example 27, 6-chloro-4-(4-(3-chlorophenoxy)piperidin-1-yl)-1-methyl-2-oxo-1,2-dihydro-1,5-naphthyridine-3-carbonitrile] | 7400 | 73 |  |  |  | 
Cn1c(=O)c([N+](=O)[O-])c(N2CCC(Oc3cccc(Cl)c3)CC2)c2cc(F)ccc21 [Example 7, 4-(4-(3-chlorophenoxy)piperidin-1-yl)-6-fluoro-1-methyl-3-nitroquinolin-2(1H)-one] |  | 2300 |  |  |  | 
CC(C)c1ccc(OC2CCN(c3c(C#N)c(=O)n(C)c4ccc(Cl)nc34)CC2)cc1 [Example 37, 6-chloro-4-(4-(4-isopropylphenoxy)piperidin-1-yl)-1-methyl-2-oxo-1,2-dihydro-1,5-naphthyridine-3-carbonitrile] |  | 1100 | 240000 | 490 |  | 
